The record followed here is patent US20250214991A1 (Oncopia Therapeutics, Inc. d/b/a/ SK Life Science Labs, priority 2022, published 2025).

One assay addresses CRBN/DDB1 (Homo sapiens (Human), UniProt Q96SW2). The assay is described as follows: IC50 measurements for binding to CRBN/DDB1 (HTRF). As to conditions: His tagged CRBN+DDB, Cy5-labeled Thalidomide probe, one hour. The method, boiled down: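 HTRF competition binding with 2 nM His-tagged CRBN-DDB1 complex, 60 nM Cy5-thalidomide probe and 0.4 nM anti-His Tb cryptate in 50 mM HEPES pH 7.5, 1 mM TCEP, 0.01% Brij-35, 50 mM NaCl, 0.1% BSA. Read after 1 h at room temperature; IC50 from four-parameter dose-response fit.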
(In general: In TR-FRET formats the signal depends on donor and acceptor labels being close together.)

For the next assay, the target named is IKZF2 (Homo sapiens (Human), UniProt Q96SW2+Q9UKS7). The assay can be described thus: In vitro IKZF2 HiBit Assay (HEK293T Flp-in-HiBiT cells). It is filed as cell-based. To be noted: HEK293T Flp-in-HiBiT cells, 6 hrs incubation; for DC50: read-out: IKZF2 HiBit DC50; for Dmax: HEK-293T, read-out: IKZF2 HiBit Dmax (%). The method, boiled down:
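HEK293T Flp-in cells carrying an endogenous N-terminal HiBiT tag on IKZF2 were exposed to compound for 6 h at 0.1% DMSO. The dilution series was 11 doses at 3-fold, diluted from 1 mM. Nano-Glo HiBiT lytic luminescence, normalized to DMSO, gave DC50 for 50% degradation and Dmax across the concentration range, both reported in letter bins.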

The target of a further assay is IKZF1 (Homo sapiens (Human), UniProt Q13422+Q96SW2). The assay is described as follows: In vitro IKZF1 HiBit Assay (HEK293T Flp-in-HiBiT-IKZF1 stable cell line). In kind it is cell-based. To be noted: HEK293T Flp-in-HiBiT-IKZF1 stable cell line, 6 hrs incubation; for DC50: read-out: IKZF1 HiBit DC50; for Dmax: HEK-293T, read-out: IKZF1 HiBit Dmax (%). The method, boiled down: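 HEK293T Flp-in cells carrying N-terminal HiBiT-tagged IKZF1 were exposed to compound (0.1% DMSO) for 6 h at 3000 cells/well. HiBiT luminescence was read after lytic LgBiT detection. DC50 and Dmax were taken from DMSO-normalized dose-response curves.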

SMILES strings stand for the structures.

Sequence of IKZF2 (Q9UKS7 whole entry): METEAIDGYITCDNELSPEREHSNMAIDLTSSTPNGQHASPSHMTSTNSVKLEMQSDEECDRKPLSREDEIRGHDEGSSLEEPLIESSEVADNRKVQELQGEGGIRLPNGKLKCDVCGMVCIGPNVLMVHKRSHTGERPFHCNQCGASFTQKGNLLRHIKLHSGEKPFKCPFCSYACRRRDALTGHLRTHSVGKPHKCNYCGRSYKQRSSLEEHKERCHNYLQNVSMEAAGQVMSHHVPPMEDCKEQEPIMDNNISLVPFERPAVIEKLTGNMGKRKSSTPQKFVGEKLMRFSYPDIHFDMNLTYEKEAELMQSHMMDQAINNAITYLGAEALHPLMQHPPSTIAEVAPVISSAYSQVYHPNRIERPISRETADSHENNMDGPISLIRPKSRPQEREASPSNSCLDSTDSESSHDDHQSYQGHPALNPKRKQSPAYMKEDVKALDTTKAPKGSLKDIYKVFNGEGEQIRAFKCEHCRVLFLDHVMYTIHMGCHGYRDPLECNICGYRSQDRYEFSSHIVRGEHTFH
Sequence of IKZF2 (Q96SW2 whole entry): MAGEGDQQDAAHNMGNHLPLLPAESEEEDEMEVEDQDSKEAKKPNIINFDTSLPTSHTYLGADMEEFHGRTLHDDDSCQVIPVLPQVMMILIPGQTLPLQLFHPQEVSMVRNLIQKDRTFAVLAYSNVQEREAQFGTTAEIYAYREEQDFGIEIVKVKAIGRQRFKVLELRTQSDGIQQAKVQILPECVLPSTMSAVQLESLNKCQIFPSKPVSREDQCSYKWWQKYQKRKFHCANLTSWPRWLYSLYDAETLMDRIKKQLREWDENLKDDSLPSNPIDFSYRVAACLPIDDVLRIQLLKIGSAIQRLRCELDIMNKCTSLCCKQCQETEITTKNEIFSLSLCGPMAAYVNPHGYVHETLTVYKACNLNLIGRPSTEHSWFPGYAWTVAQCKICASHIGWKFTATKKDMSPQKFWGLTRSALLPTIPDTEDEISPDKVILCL
Sequence of IKZF2 (Q16531 2-1140 partner): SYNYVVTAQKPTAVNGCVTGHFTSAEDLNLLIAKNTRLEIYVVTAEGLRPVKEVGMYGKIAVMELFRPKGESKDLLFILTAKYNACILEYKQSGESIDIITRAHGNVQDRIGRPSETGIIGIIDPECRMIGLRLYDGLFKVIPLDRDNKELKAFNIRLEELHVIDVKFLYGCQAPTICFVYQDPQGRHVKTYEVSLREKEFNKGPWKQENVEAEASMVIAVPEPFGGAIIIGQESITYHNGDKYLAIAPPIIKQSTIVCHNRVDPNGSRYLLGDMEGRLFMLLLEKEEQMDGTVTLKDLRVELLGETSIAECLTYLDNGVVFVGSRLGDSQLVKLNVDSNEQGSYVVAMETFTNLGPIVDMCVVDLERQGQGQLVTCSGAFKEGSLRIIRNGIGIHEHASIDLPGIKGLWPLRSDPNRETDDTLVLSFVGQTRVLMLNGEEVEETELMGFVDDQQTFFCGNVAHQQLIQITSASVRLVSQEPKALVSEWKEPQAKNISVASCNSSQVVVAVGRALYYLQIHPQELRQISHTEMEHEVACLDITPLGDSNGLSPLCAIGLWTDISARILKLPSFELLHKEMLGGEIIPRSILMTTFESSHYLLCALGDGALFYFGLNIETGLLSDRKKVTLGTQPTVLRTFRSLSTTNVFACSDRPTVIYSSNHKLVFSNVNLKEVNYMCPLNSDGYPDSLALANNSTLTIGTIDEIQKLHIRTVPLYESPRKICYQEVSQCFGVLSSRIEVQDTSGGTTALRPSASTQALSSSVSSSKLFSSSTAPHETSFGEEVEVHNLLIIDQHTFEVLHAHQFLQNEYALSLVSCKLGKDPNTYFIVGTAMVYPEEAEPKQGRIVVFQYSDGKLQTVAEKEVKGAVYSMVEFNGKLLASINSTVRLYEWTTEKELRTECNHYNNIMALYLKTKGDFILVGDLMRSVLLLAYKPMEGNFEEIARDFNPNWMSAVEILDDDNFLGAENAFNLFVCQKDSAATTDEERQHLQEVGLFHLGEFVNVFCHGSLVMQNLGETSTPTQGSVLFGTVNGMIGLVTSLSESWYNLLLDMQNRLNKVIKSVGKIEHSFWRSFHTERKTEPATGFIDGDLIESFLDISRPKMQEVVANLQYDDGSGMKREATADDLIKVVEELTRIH
Sequence of CRBN/DDB1 (Q96SW2 whole entry, species assumed): as the sequence (Q96SW2 whole entry) above
Sequence of CRBN/DDB1 (Q16531 whole entry partner, species assumed): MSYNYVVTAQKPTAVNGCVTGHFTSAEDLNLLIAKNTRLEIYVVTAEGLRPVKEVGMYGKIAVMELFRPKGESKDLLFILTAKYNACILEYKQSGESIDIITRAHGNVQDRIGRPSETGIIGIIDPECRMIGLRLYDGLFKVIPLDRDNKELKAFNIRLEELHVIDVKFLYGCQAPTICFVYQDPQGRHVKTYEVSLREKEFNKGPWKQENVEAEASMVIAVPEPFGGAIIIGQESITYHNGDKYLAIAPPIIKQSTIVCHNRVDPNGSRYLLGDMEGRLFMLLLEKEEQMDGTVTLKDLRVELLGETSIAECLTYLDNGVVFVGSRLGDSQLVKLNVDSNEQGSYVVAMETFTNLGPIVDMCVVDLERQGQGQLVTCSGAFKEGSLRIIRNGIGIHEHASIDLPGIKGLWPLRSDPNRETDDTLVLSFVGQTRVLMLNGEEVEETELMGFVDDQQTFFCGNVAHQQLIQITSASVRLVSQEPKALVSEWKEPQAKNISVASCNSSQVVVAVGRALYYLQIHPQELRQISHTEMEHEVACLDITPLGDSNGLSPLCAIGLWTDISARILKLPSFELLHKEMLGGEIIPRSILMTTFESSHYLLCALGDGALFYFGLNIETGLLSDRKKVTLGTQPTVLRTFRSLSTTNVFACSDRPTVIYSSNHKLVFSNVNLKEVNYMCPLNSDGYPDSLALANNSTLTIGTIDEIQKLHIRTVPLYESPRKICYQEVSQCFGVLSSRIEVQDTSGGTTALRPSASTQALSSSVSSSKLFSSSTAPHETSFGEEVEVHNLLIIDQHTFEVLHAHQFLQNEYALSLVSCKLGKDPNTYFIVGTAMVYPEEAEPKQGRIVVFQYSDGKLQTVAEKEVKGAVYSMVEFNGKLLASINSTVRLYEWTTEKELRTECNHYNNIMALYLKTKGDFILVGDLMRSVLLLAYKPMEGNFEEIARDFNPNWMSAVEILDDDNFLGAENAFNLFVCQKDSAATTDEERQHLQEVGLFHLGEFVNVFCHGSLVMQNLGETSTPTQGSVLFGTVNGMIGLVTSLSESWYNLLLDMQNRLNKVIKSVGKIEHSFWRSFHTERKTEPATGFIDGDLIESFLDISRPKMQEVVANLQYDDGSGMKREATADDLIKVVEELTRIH
Sequence of IKZF1 (Q13422 whole entry): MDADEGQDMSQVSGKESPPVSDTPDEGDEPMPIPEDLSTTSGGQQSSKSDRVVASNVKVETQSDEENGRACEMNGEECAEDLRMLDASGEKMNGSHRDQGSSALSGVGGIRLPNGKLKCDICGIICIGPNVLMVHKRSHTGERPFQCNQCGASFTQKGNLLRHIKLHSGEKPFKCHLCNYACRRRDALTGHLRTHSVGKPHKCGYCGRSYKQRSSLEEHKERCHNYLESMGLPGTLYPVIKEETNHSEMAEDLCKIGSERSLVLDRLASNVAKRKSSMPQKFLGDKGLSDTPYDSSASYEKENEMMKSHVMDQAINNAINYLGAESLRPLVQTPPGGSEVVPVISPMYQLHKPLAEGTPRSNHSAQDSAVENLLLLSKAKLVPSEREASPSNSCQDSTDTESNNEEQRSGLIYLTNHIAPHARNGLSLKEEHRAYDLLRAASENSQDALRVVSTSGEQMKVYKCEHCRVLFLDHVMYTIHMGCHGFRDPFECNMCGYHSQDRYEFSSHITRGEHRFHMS
Sequence of IKZF1 (Q96SW2 whole entry): as the sequence (Q96SW2 whole entry) above
Sequence of IKZF1 (Q16531 2-1140 partner): as the sequence (Q16531 2-1140 partner) above

`O=C1CCC(N2Cc3cc(-c4cc(CN5CCC5)c5[nH]ccc5n4)ccc3C2=O)C(=O)N1` (centres unmarked) [Example 156, 3-(5-(7-(azetidin-1-ylmethyl)-1H-pyrrolo[3,2-b]pyridin-5-yl)-1-oxoisoindolin-2-yl) piperidine-2,6-dione]: the IC50 on CRBN/DDB1 was in the range of 1000 to 5000 nM. For the same compound, the values for the DC50 on IKZF2 and at IKZF1 were 1 to 10 nM and 10 to 100 nM, respectively. For the same compound, the Dmax on IKZF2 is above 80%; on IKZF1, 20 to 40%.

For the compound `Cn1ccc2c(CN3CC4(COC4)C3)cc(-c3ccc4c(c3)CN(C3CCC(=O)NC3=O)C4=O)nc21` (centres unmarked) [Example 91, 3-(5-(4-((2-oxa-6-azaspiro[3.3]heptan-6-yl)methyl)-1-methyl-1H-pyrrolo[2,3-b]pyridin-6-yl)-1-oxoisoindolin-2-yl) piperidine-2,6-dione], the IC50 at CRBN/DDB1 lay within 500 to 1000 nM. Besides, at IKZF2, the DC50 lay within 1 to 10 nM and the Dmax was above 80%. On IKZF1, the DC50 fell in the range of 10 to 100 nM and the Dmax lay in the range of 20 to 40%.

`Cn1ccc2c(CN3CCC(n4ccnc4)CC3)cc(-c3ccc4c(c3)CN(C3CCC(=O)NC3=O)C4=O)nc21` (centres unmarked) [Example 115, 3-(5-(4-((4-(1HIimidazol-1-yl)piperidin-1-yl)methyl)-1-methyl-1H-pyrrolo[2,3-b]pyridin-6-yl)-1-oxoisoindolin-2-yl) piperidine-2,6-dione] returned an IC50 on CRBN/DDB1 of 500 to 1000 nM. Moreover, the DC50 on IKZF2 is 10 to 100 nM; at IKZF1, above 10000 nM. Also, the Dmax at IKZF2 is 60 to 80%; on IKZF1 it was below 20%.

`O=C1CCC(N2Cc3cc(-c4cc(CN5CCCC5)c5c(n4)CCC5)ccc3C2=O)C(=O)N1` (centres unmarked) [Example 80, 3-(1-oxo-5-(4-(pyrrolidin-1-ylmethyl)-6,7-dihydro-5H-cyclopenta[b]pyridin-2-yl)isoindolin-2-yl) piperidine-2,6-dione]: the 50% inhibitory concentration (IC50) at CRBN/DDB1 was 100 to 500 nM. In addition, at IKZF2, the DC50 was below 1 nM and the Dmax was above 80%. Also, the Dmax on IKZF1 lay in the range of 20 to 40%.

On CRBN/DDB1, `O=C1CCC(N2Cc3cc(-c4cc(CN5CCC(CO)C5)c5ccn(C6CC6)c5n4)ccc3C2=O)C(=O)N1` (centres unmarked) [Example 155, 3-(5-(1-cyclopropyl-4-((3-(hydroxymethyl)pyrrolidin-1-yl)methyl)-1H-pyrrolo[2,3-b]pyridin-6-yl)-1-oxoisoindolin-2-yl) piperidine-2,6-dione] gave a half-inhibitory concentration (IC50) of 100 to 500 nM. Besides, the figures for the DC50 at IKZF2 and on IKZF1 were 1 to 10 nM and 10 to 100 nM, respectively. Moreover, the Dmax was above 80% on IKZF2 and 20 to 40% at IKZF1.

Consider `CC(C)n1nc(N)c2nc(-c3ccc4c(c3)CN(C3CCC(=O)NC3=O)C4=O)cc(CN3CCCC3)c21` (centres unmarked) [Example 177, 3-(5-(3-amino-1-isopropyl-7-(pyrrolidin-1-ylmethyl)-1H-pyrazolo[4,3-b]pyridin-5-yl)-1-oxoisoindolin-2-yl) piperidine-2,6-dione], for which, at CRBN/DDB1, the IC50 is 500 to 1000 nM. Besides, at IKZF2, the DC50 is 1 to 10 nM and the Dmax was 60 to 80%. Moreover, on IKZF1, the DC50 lay within 10 to 100 nM and the Dmax lay in the range of 20 to 40%.

`Cn1ccc2c(CN3CCC3c3ccccc3)cc(-c3ccc4c(c3)CN(C3CCC(=O)NC3=O)C4=O)nc21` (centres unmarked) [Example 71, 3-(5-(1-methyl-4-((2-phenylazetidin-1-yl)methyl)-1H-pyrrolo[2,3-b]pyridin-6-yl)-1-oxoisoindolin-2-yl) piperidine-2,6-dione]: at CRBN/DDB1, the IC50 is 100 to 500 nM. Also, at IKZF2, the DC50 was 1 to 10 nM and the Dmax is above 80%. Also, at IKZF1, the DC50 was above 10000 nM and the Dmax was in the range of 20 to 40%.

For `CC1CCN(Cc2cc(-c3ccc4c(c3)CN(C3CCC(=O)NC3=O)C4=O)nc3c2ccn3C)CC1` (centres unmarked) [Example 81, 3-(5-(1-methyl-4-((4-methylpiperidin-1-yl)methyl)-1H-pyrrolo[2,3-b]pyridin-6-yl)-1-oxoisoindolin-2-yl) piperidine-2,6-dione], the half-inhibitory concentration (IC50) on CRBN/DDB1 lay within 5000 to 10000 nM. Further, the DC50 at IKZF2 is below 1 nM; on IKZF1 it was 10 to 100 nM. The figures for the Dmax at IKZF2 and at IKZF1 were above 80% and 40 to 60%, respectively.

Compound `Cn1ccc2c(CN3CCC4(CCC4)CC3)cc(-c3ccc4c(c3)CN(C3CCC(=O)NC3=O)C4=O)nc21` (centres unmarked) [Example 69, 3-(5-(4-((7-azaspiro[3.5]nonan-7-yl)methyl)-1-methyl-1H-pyrrolo[2,3-b]pyridin-6-yl)-1-oxoisoindolin-2-yl) piperidine-2,6-dione] came in with an IC50 on CRBN/DDB1 of 100 to 500 nM. The DC50 was below 1 nM at IKZF2 and above 10000 nM on IKZF1. Besides, the Dmax at IKZF2 was above 80%; at IKZF1, 20 to 40%.

The compound `Cn1ccc2c(CN3CCC(C(F)(F)F)CC3)cc(-c3ccc4c(c3)CN(C3CCC(=O)NC3=O)C4=O)nc21` (centres unmarked) [Example 90, 3-(5-(1-methyl-4-((4-(trifluoromethyl)piperidin-1-yl)methyl)-1H-pyrrolo[2,3-b]pyridin-6-yl)-1-oxoisoindolin-2-yl) piperidine-2,6-dione] displayed a half-inhibitory concentration (IC50) at CRBN/DDB1 of 100 to 500 nM. Moreover, on IKZF2, the DC50 was 1 to 10 nM and the Dmax is above 80%. Besides, at IKZF1, the DC50 lay in the range of 10 to 100 nM and the Dmax fell in the range of 20 to 40%.

`O=C1CCC(N2Cc3cc(-c4cc(CN5CC(O)C5)c5ccn(C6COC6)c5n4)ccc3C2=O)C(=O)N1` (centres unmarked) [Example 160, 3-(5-(4-((3-hydroxyazetidin-1-yl)methyl)-1-(oxetan-3-yl)-1H-pyrrolo[2,3-b]pyridin-6-yl)-1-oxoisoindolin-2-yl) piperidine-2,6-dione] displayed an IC50 on CRBN/DDB1 below 100 nM. Further, on IKZF2, the DC50 lay in the range of 10 to 100 nM and the Dmax was 40 to 60%. For the same compound, at IKZF1, the DC50 was above 10000 nM and the Dmax is below 20%.

On to `Cn1ccc2c(N3CCCC3)cc(-c3ccc4c(c3)CN(C3CCC(=O)NC3=O)C4=O)nc21` (centres unmarked) [Example 114, 3-(5-(1-methyl-4-(pyrrolidin-1-yl)-1H-pyrrolo[2,3-b]pyridin-6-yl)-1-oxoisoindolin-2-yl) piperidine-2,6-dione], for which the IC50 at CRBN/DDB1 is 1000 to 5000 nM. Further, on IKZF2, the DC50 lay within 10 to 100 nM and the Dmax lay in the range of 20 to 40%. For the same compound, on IKZF1, the DC50 is above 10000 nM and the Dmax was below 20%.

On to `Cc1cc(-c2ccc3c(c2)CN(C2CCC(=O)NC2=O)C3=O)nc2nc(CN3CCCC3)oc12` (centres unmarked) [Example 195, 3-(5-(7-methyl-2-(pyrrolidin-1-ylmethyl)oxazolo[4,5-b]pyridin-5-yl)-1-oxoisoindolin-2-yl) piperidine-2,6-dione], for which the IC50 at CRBN/DDB1 was in the range of 1000 to 5000 nM. In addition, at IKZF2, the DC50 lay within 10 to 100 nM and the Dmax was 60 to 80%. For the same compound, at IKZF1, the DC50 was above 10000 nM and the Dmax was below 20%.

In turn, `CC(C)Oc1n[nH]c2c(CN3CCCC3)cc(-c3ccc4c(c3)CN(C3CCC(=O)NC3=O)C4=O)nc12` (centres unmarked) [Example 238, 3-(5-(3-isopropoxy-7-(pyrrolidin-1-ylmethyl)-1H-pyrazolo[4,3-b]pyridin-5-yl)-1-oxoisoindolin-2-yl) piperidine-2,6-dione] had an IC50 on CRBN/DDB1 of 1000 to 5000 nM. The DC50 at IKZF2 is below 1 nM; at IKZF1, above 10000 nM. In addition, the Dmax on IKZF2 was 60 to 80%; at IKZF1, below 20%.

Compound `Cn1ccc2c(Cn3ccnc3)cc(-c3ccc4c(c3)CN(C3CCC(=O)NC3=O)C4=O)nc21` (centres unmarked) [Example 88, 3-(5-(4-((1H-imidazol-1-yl)methyl)-1-methyl-1H-pyrrolo[2,3-b]pyridin-6-yl)-1-oxoisoindolin-2-yl) piperidine-2,6-dione] yielded an IC50 on CRBN/DDB1 of 1000 to 5000 nM. Besides, at IKZF2, the DC50 lay within 10 to 100 nM and the Dmax was above 80%. In addition, on IKZF1, the DC50 was above 10000 nM and the Dmax was below 20%.

As for `Cn1ccc2c(CN3CC4COCC4C3)cc(-c3ccc4c(c3)CN(C3CCC(=O)NC3=O)C4=O)nc21` (centres unmarked) [Example 63, 3-(5-(1-methyl-4-((tetrahydro-1H-furo[3,4-c]pyrrol-5 (3H)-yl)methyl)-1H-pyrrolo[2,3-b]pyridin-6-yl)-1-oxoisoindolin-2-yl) piperidine-2,6-dione], the IC50 at CRBN/DDB1 is 100 to 500 nM. At IKZF2, the DC50 is below 1 nM and the Dmax is above 80%. Also, on IKZF1, the DC50 was above 10000 nM and the Dmax was 20 to 40%.

Turning to `Nc1n[nH]c2c(CN3CCC(F)C3)cc(-c3ccc4c(c3)CN(C3CCC(=O)NC3=O)C4=O)nc12` (centres unmarked) [Example 201, 3-(5-(3-amino-7-((3-fluoropyrrolidin-1-yl)methyl)-1H-pyrazolo[4,3-b]pyridin-5-yl)-1-oxoisoindolin-2-yl) piperidine-2,6-dione], the IC50 on CRBN/DDB1 lay in the range of 500 to 1000 nM. Further, on IKZF2, the DC50 lay in the range of 10 to 100 nM and the Dmax fell in the range of 60 to 80%. In addition, at IKZF1, the DC50 was in the range of 1000 to 10000 nM and the Dmax lay within 20 to 40%.

As for `Cn1ccc2c(CN3CCCCCC3)cc(-c3ccc4c(c3)CN(C3CCC(=O)NC3=O)C4=O)nc21` (centres unmarked) [Example 302, 3-(5-(4-(azepan-1-ylmethyl)-1-methyl-1H-pyrrolo[2,3-b]pyridin-6-yl)-1-oxoisoindolin-2-yl) piperidine-2,6-dione], at CRBN/DDB1, the IC50 lay in the range of 1000 to 5000 nM. The DC50 was below 1 nM on IKZF2 and 1 to 10 nM on IKZF1. Moreover, the results for the Dmax on IKZF2 and at IKZF1 were above 80% and 20 to 40%, respectively.

One may read the IC50 as the point on the concentration scale where inhibition reaches its midpoint.
